Patent US20190350907A1, “METHODS AND PHARMACEUTICAL COMPOSITIONS FOR REDUCING CD95- MEDIATED CELL MOTILITY” (INSERM (INSTITUT NATIONAL DE LA SANTÉ ET DE LA RECHERCHE …, priority 2017, published 2019)
Entries after “also recorded” stand apart in the source; their conditions may differ. One block for each compound: values may come before it.

Columns and labels:
[1] = system: CD95-mediated Ca2+ signaling pathway in Th17 cells; experiment: CD95-mediated Ca2+ response in Th17 cells; format: cell-based, human; settings: non-toxic concentrations (1 μM), 1 h pre-treatment, cl-CD95L 100 ng/mL, FuraPE3-AM
Experimental: A. Activated PBLs were loaded with FuraPE3-AM (1 μM) and pre-treated for 1 h with non-toxic concentrations of indicated compounds. T-cells were then stimulated with thapsigargin (1 μM; arrow). Ratio values (R) were normalized to pre-stimulated values (R0) to yield R/R0 values. Data represent means±the SD. B. Th17 cells were sorted from healthy donors and loaded with FuraPE3-AM (1 μM). Th17 cells were pre-treated for 1 h with non-toxic concentrations of ritonavir or diflunisal (1 μM). T-cells were then stimulated with cl-CD95L (100 ng/mL; arrow). Ratio values (R) were normalized to pre-stimulated values (R0) to yield R/R0 values. Data represent means±the SD.
Human PBLs were sorted using flow cytometry cell sorting to isolate Th17 (A) according to their phenotype (CD3+CD4+CXCR5−CCR6+CXCR3−CD45RA−) and Tfh (B) (CD4+CXCR5+ICOS+PD−1+CD45RA−). Cells were pre-incubated with Indicated drugs (1 μM) for 1 h and then stimulated with 100 ng/mL of s-CD95L. [Ca2+]CYT was assessed in Fluo2 LR-AM (3 μM)-loaded cells. Data represent means±the SD of 3 independent experiments.
Peripheral blood mononuclear cells (PBMC) were isolated from buffy-coat by density gradient using lymphocyte separation medium (Eurobio, Les Ulis, France). PBMCs were then subjected to selection using a cocktail of antibody-coated magnetic beads: CCR6^+ CXCR3^−CD4^+ cells (Th17 cells) were sorted with Human Th17 Enrichment kit (STEMCELL Technologies, Grenoble, France). Cell sorting efficiency was evaluated by FACS.
T-cells were loaded with Fura-PE3-AM (1 μM) at room temperature for 30 min in Hank's Balanced Salt Solution (HBSS). After washing, the cells were incubated for 15 min in the absence of Fura-PE3-AM to complete de-esterification of the dye. Cells were placed in a temperature controlled chamber (37° C.) of an inverted epifluorescence microscope (Olympus IX70) equipped with an x40 UApo/340-1.15 W water-immersion objective (Olympus), and fluorescence micrograph images were captured at 510 nm and 12-bit resolution by a fast-scan camera (CoolSNAP fx Monochrome, Photometrics). To minimize UV light exposure, a 4×4 binning function was used. Fura-PE3 was alternately excited at 340 and 380 nm, and the ratios of the resulting images (emission filter at 520 nm) were produced at constant intervals (10 seconds). The Fura-PE3 ratio (Fratio 340/380) images were analyzed offline with Universal Imaging software, including Metafluor and Metamorph. Fratio reflects the intracellular Ca^2+ concentration changes. Each experiment was repeated at least 3 times, and the average of more than 20 single-cell traces per experiment was analyzed.

CD95/PLCγ1 interaction = target: T1, CD95/PLCγ1 interaction (Homo sapiens, UniProt P19174); experiment: Renilla luciferase protein-fragment complementation assay (PCA), CD95-CID/PLCγ1-SH3; format: cell-based; settings: result in words
T1 construct: The PLCγ1-SH3 domain (aa 790-851) (C); expressed in transfected cells; host or cells: HEK293T
T1 sequence (P19174 790-851): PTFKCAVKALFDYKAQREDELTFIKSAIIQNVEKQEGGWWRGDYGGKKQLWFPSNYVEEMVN
Experimental: FIG. 1. […] A. Schematic representation of the protein-fragment complementation assay used with CD95-CID or -DD fused to F2 and PLCγ1-SH3 or FADD-DD fused to F1 to identify inhibitors from the Prestwick library. The Renilla luciferase enzyme was divided into amino-terminal and carboxy-terminal fragments (yellow domains) and fused to the indicated domains. B. Compounds from the Prestwick library were tested against CD95/PLCγ1 or CD95/FADD PCA. […] Inhibition of CD95/FADD interaction is also assessed.
Light emission indicates refolding of the luciferase and reconstitution of enzyme activity through protein/protein interactions. […] Data represent means±SD of three independent experiments. […] Then, the indicated peptides fused with or without the cell-penetrating domain TAT were incubated at the indicated concentrations for 4 hrs and luminescence was assessed. Data represent means±SD of three independent experiments. […].
HEK293T cells were electroporated with 5 μg of DNA using BTM-830 electroporation generator (BTX Instrument Division, Harvard Apparatus) with 10 μg of DNA. Transfected cells were cultured for 24 hrs prior to protein complementation assay analyses as previously described (17). Briefly, transfected cells (10^6) were washed, resuspended in 100 μl PBS and deposited in OptiPlate-96 (PerkinElmer, Waltham, Mass., USA). Coelenterazine-h (5 μM, Sigma) was injected to each well and renilla luciferase activity was monitored for the first 10 seconds using Infinite200Pro (Tecan, Männedorf, Switzerland).
A peptide consisting of the cell-penetrating domain of TAT fused to CID (TAT-CID) binds the SH3 domain of PLCγ1 and thereby, prevents PLCγ1/CD95 interaction and the subsequent induction of the Ca^2+ response (16). […] Briefly, the Renilla luciferase enzyme was divided into two fragments (F1 and F2 fragments). […] Interaction of CD95 with PLCγ1 or FADD allows the reconstitution of RLuc and subsequent light emission (FIG. 1A). The chemical Prestwick library was screened against these PCAs (FIG. 1B). […] These molecules are designated CID inhibitors or CIDINH.

[2] = system: Tfh-dependent B cell activation; experiment: Tfh-dependent B-cell maturation co-culture (memory B cells with SEB-stimulated Tfh cells, s-CD95L); format: cell-based; settings: preincubation of Tfh cells
[3] = system: CD95-mediated Ca2+ signaling pathway in Tfh cells; experiment: CD95-mediated Ca2+ response in Tfh cells; format: cell-based, human; settings: Example 2; signal described for Th17 and circulating Tfh cells

- effect on interaction of CD95 with PLCγ1 (CD95/PLCγ1 interaction): efficiently prevented
SMILES: O=C(O)c1cc(-c2ccc(F)cc2F)ccc1O [diflunisal, 5-(2,4-difluorophenyl)-2-hydroxybenzoic acid]
- effect on CD95-mediated Ca2+ signaling in Th17 cells [1]: abrogated

SMILES: CC(C)c1nc(CN(C)C(=O)N[C@H](C(=O)N[C@@H](Cc2ccccc2)C[C@H](O)[C@H](Cc2ccccc2)NC(=O)OCc2cncs2)C(C)C)cs1 [ritonavir, 1,3-thiazol-5-ylmethyl N-[(2S,3S,5S)-3-hydroxy-5-[[(2S)-3-methyl-2-[[methyl-[(2-propan-2-yl-1,3-thiazol-4-yl)methyl]carbamoyl]amino]butanoyl]amino]-1,6-diphenylhexan-2-yl]carbamate]
- effect on Tfh-dependent B cell activation [2]: blocks
- effect on sCD95L-induced Ca2+ response [3]: abrogated
- effect on CD95-mediated Ca2+ signaling in Th17 cells [1]: abrogated
- effect on interaction of CD95 with PLCγ1 (CD95/PLCγ1 interaction): efficiently prevented; also recorded: prevents the PLCγ1 recruitment
